Source: patent US20240158384A1, “CB2 RECEPTOR AGONISTS” (The Board of Trustees of the Leland Stanford Junior …, priority 2020, published 2024)

Columns and labels:
[1] = target: T1, human CB1R (Homo sapiens, UniProt P21554); assay: cAMP Hunter eXpress GPCR assay, human CB1: inhibition of forskolin-stimulated cAMP in CHO cells; assay type: cell-based
T1 construct: host or cells: CHO cells
Procedure: (§1) Briefly, cAMP Hunter eXpress Cells were seeded 18-24 h prior to the in a 96-well tissue culture treated assay plate and incubated in 5% CO2 at 37° C. in a humidified incubator. After removal of cell media, agonist compound and forskolin prepared in cell assay buffer was added and incubated at 37° C. The CB1 cAMP assay was stimulated with 20 μM final concentration of forskolin with 40 minutes incubation time. The CB2 cAMP assay was stimulated with 25 μM final concentration of forskolin with 35 minutes incubation time. The assay was stopped by incubation with antibody and working solution for 1 h at room temperature. After over 3 h incubation at room temperature in the dark with enzyme acceptor solution, chemiluminescence was measured on a CLARIOstar plate reader (BMG LABTECH Inc., Cary, NC, USA).

[2] = target: T2, human CB2R (Homo sapiens, UniProt P34972); assay: PathHunter β-Arrestin assay, beta-arrestin recruitment; assay type: cell-based
T2 sequence (P34972 whole entry): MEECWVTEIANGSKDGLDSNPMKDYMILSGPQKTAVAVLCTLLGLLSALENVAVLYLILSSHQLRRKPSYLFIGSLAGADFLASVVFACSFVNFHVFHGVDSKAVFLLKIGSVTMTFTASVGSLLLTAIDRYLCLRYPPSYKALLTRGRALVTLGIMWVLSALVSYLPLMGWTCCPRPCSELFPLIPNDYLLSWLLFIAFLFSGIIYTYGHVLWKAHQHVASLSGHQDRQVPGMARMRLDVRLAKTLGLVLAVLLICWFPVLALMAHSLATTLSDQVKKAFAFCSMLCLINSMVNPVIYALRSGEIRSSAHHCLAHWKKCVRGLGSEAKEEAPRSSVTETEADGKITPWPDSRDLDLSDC
Procedure: The assay was performed using the PathHunter β-Arrestin human CB2 cell line (catalog no. 93-0706C2) and using the PathHunter® β-Arrestin Assay for GPCR Cell Lines (source: DiscoveRx, Fremont, CA, USA), according to the manufacturer's protocol (https://www.discoverx.com/tools-resources/document-resource-library/documents/user-manual-pathhunter-% CE % B2-arrestin-assay-for-gpcr-c). Briefly, cells were seeded at a density of 10,000 cells per well in a 96-well plate and incubated overnight (16-18 h) in a humidified atmosphere at 37° C. and 5% C02. Agonist prepared in PBS was added and the assay plate incubated for 3 h in a humidified atmosphere at 37° C. and 5% C02. Working detection solution was added and the plate was incubated for 1 h in the dark at room temperature. Chemiluminescence was measured on an CLARIOstar plate reader (BMG LABTECH Inc., Cary, NC, USA).

[3] = target: T3, GPR18 (Homo sapiens, UniProt Q14330); assay: Off-target activity GPR18 (agonist, antagonist, PAM modes); assay type: cell-based
T3 sequence (Q14330 1-331): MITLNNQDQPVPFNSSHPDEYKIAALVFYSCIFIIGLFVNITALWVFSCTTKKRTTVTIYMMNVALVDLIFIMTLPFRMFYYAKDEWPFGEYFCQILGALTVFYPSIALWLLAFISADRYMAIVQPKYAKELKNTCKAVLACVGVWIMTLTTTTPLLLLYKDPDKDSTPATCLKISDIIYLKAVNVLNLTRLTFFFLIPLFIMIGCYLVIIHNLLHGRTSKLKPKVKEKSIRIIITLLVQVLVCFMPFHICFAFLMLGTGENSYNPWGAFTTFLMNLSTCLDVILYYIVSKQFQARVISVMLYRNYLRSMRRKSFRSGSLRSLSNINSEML
Procedure: (§2) Detailed characterization data was collected for Compound 22. Primary assays were carried out according to Examples 2 and 3, while other assays were carried out according to standard methods.

[4] = Microsomal stability; assay type: in vitro ADME
Procedure: as §2

[5] = tested on: spontaneous DA transients in NAc; assay: GRAB-DA fiber photometry, spontaneous DA transients; assay type: in vivo, mouse
Procedure: For this study, a probe was implanted into the nucleus accumbens (NAc) (FIG. 11A). Following baseline measurements, mice were dosed with vehicle or Compound 22 (10 mg/kg, i.p) followed 40 min later by a single dose of AMPH (2 mg/kg, i.p.). Samples were collected for 2 hr post-dosing. Extracellular dopamine (DA) levels in the dialysate were quantified by HPLC with electrochemical detection (FIG. 11B). […] Compound 22 modulates both spontaneous and reward-related DA release. To confirm these findings in parallel experiments, GPCR-activation based-DA (GRAB-DA) was used, which is a human D2R-GFP chimera sensor that produces fluorescence changes reliably and with sub-second kinetics in response to extracellular DA concentration changes in behaving animals (Sun et al. Cell 2018; 174(2):481-96.e19). Mice were injected with an adeno-associated virus (AAV) carrying GRAB-DA into the (NAc) (FIG. 11C) and allowed to recover for −2 weeks before fiber photometry experiments were performed. In the first pilot experiment, baseline DA release were recorded for 5 min before mice (n=3) were injected with either Compound 22 or vehicle and then recording was continued for 45 min. The rate of spontaneous DA transients was compared in the pre-injection (0-5 min) vs post-injection (35-50 min) periods; there was a significant time x drug interaction: F(1,4)=11.91, P=0.026.

[6] = target: T2, human CB2R; assay: cAMP Hunter eXpress GPCR assay, human CB2: inhibition of forskolin-stimulated cAMP in CHO cells; assay type: cell-based; design: host or cells: CHO cells
Procedure: as §1

T1 sequence (P21554 whole entry): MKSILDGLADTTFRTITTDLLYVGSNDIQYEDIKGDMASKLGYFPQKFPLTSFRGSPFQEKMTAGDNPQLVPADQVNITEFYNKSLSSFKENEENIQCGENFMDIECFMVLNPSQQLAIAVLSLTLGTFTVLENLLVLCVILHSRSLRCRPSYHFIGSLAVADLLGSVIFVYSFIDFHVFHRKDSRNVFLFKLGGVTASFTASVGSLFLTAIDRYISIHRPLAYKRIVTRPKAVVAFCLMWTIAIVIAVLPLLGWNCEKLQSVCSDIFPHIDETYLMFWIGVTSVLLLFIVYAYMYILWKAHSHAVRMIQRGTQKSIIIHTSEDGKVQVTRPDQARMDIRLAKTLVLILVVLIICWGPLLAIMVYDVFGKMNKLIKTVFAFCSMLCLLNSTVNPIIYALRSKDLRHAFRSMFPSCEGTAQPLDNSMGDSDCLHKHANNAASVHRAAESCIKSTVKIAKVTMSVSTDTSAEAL

CC(C)(CO)c1cc(NC(=O)N2CCCN2c2ccc(C(F)(F)F)cc2)no1 [Compound 22, N-(5-(1-hydroxy-2-methylpropan-2-yl)isoxazol-3-yl)-2-(4-(trifluoromethyl)phenyl)pyrazolidine-1-carboxamide]
EC50 [1]: > 10 µM | EC50 [2]: 0.578 µM | Activation of beta-arrestin pathway (in words) ([2]; hCB2, CP-55940 as control): weak beta-arrestin activity | EC50 [3]: > 10 µM | IC50 [3]: > 10 µM | Microsomal stability, clearance class [4]: Low clearance | half-life ([4]; microsomes, read-out: Microsomal stability t ½): 2 h | Shape of the spontaneous DA transients ([5]; before and after injection): widening the curve | Rate of spontaneous DA transients ([5]; pre-injection (0-5 min) vs post-injection (35-50 min), n=3): reduced the rate of spontaneous transients | EC50 ([6]; Activity in primary assay: CB2 EC50, Table 6, hCB2 cAMP, agonist mode, mean of n = 3-5 expts on ≥2 batches): 0.067 µM | Selectivity (related family) ([6]; CB1/CB2 cAMP): 150 fold selectivity | Selectivity (pathway) ([6]; CB2 cAMP/CB2 beta-arrestin): 9 fold selectivity | CB2 agonist character (in words) ([6]; cAMP assay, CP-55940 as full agonist control): potent agonists of CB2 | Selectivity for CB2 over CB1 (in words) ([6]; cAMP assays hCB1 vs hCB2): selective for CB2 over CB1
